The values below come from patent US20190337927A1, “PHOTOPROTECTIVE COMPOSITIONS CONTAINING MALASSEZIA-DERIVED COMPOUNDS AND/OR CHEMICAL ANALOGS THEREOF” (priority 2018, published 2019).

Like-named read-outs stand apart in the source and are kept apart here.

The target of data set [1] is T1, arylhydrocarbon receptor (AhR) (Homo sapiens, UniProt P35869).
T1 sequence (P35869 11-848): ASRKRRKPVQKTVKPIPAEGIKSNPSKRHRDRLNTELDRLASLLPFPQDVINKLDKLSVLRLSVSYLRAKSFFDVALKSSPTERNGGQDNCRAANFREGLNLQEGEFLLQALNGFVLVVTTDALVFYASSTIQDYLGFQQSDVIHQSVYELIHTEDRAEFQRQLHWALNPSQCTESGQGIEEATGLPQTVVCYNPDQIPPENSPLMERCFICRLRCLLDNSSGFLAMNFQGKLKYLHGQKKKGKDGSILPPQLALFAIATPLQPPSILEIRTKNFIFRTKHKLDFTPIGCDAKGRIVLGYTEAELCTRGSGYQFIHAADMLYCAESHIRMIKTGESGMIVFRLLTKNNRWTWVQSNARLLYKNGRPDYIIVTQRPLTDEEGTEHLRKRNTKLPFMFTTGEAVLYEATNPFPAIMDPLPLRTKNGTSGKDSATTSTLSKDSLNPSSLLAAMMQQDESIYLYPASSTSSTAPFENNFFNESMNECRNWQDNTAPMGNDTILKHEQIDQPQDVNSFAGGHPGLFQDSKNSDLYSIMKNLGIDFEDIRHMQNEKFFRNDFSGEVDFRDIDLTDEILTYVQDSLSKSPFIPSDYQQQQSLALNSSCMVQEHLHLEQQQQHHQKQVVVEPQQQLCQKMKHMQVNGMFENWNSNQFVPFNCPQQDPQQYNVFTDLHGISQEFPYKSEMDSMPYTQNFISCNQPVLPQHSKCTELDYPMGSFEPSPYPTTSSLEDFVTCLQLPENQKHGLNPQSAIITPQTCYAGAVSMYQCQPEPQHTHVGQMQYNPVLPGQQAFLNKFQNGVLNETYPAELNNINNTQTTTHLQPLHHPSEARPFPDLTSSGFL
The note with it: cited from earlier work.

Data set [2] relates to primary human melanocytes. The note with it: cited from earlier work.
In a further data set the test system is Skin Type IV female. As to the kind of experiment: In vivo photoprotection proof of concept study: UVB-induced erythema after topical treatment. Details: species or system human. The note with it: one subject. The source says:
The Malassezin 1% formulation used in this study contained the following ingredients: Water (aqua)—65.939%; Dimethyl isosorbide—20.000%; Olive Oil Glycereth-8 Esters—3.000%; Glycerin—2.991%; Coconut Alkanes—2.700%; Hydroxyethyl Acrylate/Sodium Acryloyldimethyl Taurate Copolymer—1.700%; Malassezin—1.000%; Pentylene Glycol—1.000%; Phenoxyethanol—0.640%; Coco-Caprylate/Caprate—0.300%; Caprylyl Glycol—0.200%; Chlorphenesin—0.160%; Sorbitan Isostearate—0.140%; Tocopherl—0.100%; Polysorbate 60—0.080%; and Disodium EDTA—0.050%.
A Skin Type IV […] was included in this Proof of Concept study.
A template of 6 squares was placed on the lower left back (1.5 cm×1.5 cm) of the test subject See FIG. 7.
Twenty-four hours after irradiation, the subject returned for MED assessment.
A second right lower square was treated twice daily from day 4 to day 7, and a third medial square for one application on day 7. The product vehicle was applied for 7 days twice daily on the left back. The subject returned to the research center for irradiation on day 7. Each test site was irradiated with 120 mJ of UVB exposure. The subject returned in 24 hours for assessment of phototoxicity/photoprotection.
The subject continued the experiment, receiving Malassezin 1% for a total of 14 days. […]

A further data set relates to Candida albicans. Particulars: cited from earlier work.
The conditions of data set [3]: cited from earlier work.
The test system of a further data set is staphylococci. Particulars: cited from earlier work.
Another data set relates to yeast model. Particulars: cited from earlier work.

On to `O=C1Nc2ccccc2/C1=C1/Nc2ccccc2C1=O` [Indirubin], for which the AhR activity entry in data set [1] is on record as “agonist”.
With `O=Cc1c(Cc2c[nH]c3ccccc23)[nH]c2ccccc12` [Malassezin, 2-(1H-indol-3-ylmethyl)-1H-indole-3-carbaldehyde], the AhR activity entry in data set [1] is listed as “agonist”. Also, in data set [2], the apoptosis induction entry is “induces apoptosis”. Further, the “UV-protective properties, study conclusion” value in the data set on Skin Type IV female was “UV-protective properties”.
Take `O=C(c1c[nH]c2ccccc12)c1nccc2c1[nH]c1ccccc12` [Pityriacitrin]: the UV-protective effect result in the data set on Candida albicans and in the data set on staphylococci was “UV-protective effect” in each case. In addition, the toxicity entry in the data set on Candida albicans (ranges tested) and in the data set on staphylococci (ranges tested) was “no toxicity” in each case. Moreover, the “UV protective effect overall” value in data set [3] (in vitro and in vivo tests in humans) is on record as “very weak”. In addition, the “sun protection factor (SPF)” value in data set [3] (pityriacitrin concentration 1.25% in cream) was 1.4; in data set [3] (pityriacitrin concentration 2.5% in cream) it was 1.5; in data set [3] (pityriacitrin concentration 5% in cream), 1.7.
As to `O=C1OC(c2c[nH]c3ccccc23)=C(c2c[nH]c3ccccc23)C1=O` [Pityrialactone], in the data set on yeast model, the UV protective properties entry is “confirmed”.
